Experimental data as given in patent publication US11207290B2, “Combinations of cannabinoids and N-acylethanolamines” (SciSparc Ltd., priority 2015, dated 2021).
Entries after “also recorded” stand apart in the source; their conditions may differ.

Experiments:
Mice, strain ICR [1] = assay: Tail pinch test (modified Haffner's method); assay type: in vivo; conditions: for Latency to respond: vs control
Procedure: (§1) Animals—Mice, strain ICR, male, 8 weeks of age at study initiation. The average animal body weight at study initiation was in the range of 31.97±1.61 g. […] Animals were randomly allocated to individual cages on the day of reception. Animals were acclimated for seven to nine days.
(§2) Test item was administered […] at a dose volume of 10 ml/kg according to the doses in Table 1. Dosing was performed 15 minutes before each of the behavioral tests.
Tail pinch tests were performed as follows, according to the modified Haffner's method (as depicted in Takagi et al., Jpn. J. Pharmacol., 1966, 16, Pages 287-294)—Mice were pretested by pinching their tail base with an artery clip (1.5 mm width, constant force), and only the mice that show a nociceptive response such as biting the clip or vocalizing within 2 sec were used for experiments. […] To prevent tissue damage, the pressure stimuli was not applied for more than 10 sec. After drug treatments, the nociceptive response in the tail-pinch test was measured at varying intervals.
(§3) Statistical analysis—Numerical results were given as means±standard error of the mean. The results were subjected either to a T-test or to two-way ANOVA, followed by Bonferroni post-hoc contrast analysis between the groups where applicable. A probability of less than 5% (p<0.05) was regarded as significant.

Mice, strain ICR [2] = assay: Open Field (OF) test; assay type: in vivo; conditions: 15 minute session; for Average animal velocity (uncontrolled movement): FIG. 2
Procedure: as §1, §2
Open Field (OF) tests were performed as follows—Fifteen minutes after test item/vehicle administration, mice were placed at the center of an open field box (43×43×40 cm) between 9 AM and 5 PM. On each side of the open field box, two frames placed at 2 and 5 cm height with 16 photocell beams per side ensure movement detection. The computer defined grid lines that divided the open field into two compartments: margin and center. Several variables were recorded during a 15 minute session of spontaneous activity including: time spent moving, traveled distance, time spent and number of visits to the central compartment.
as §3

adult TS patients [3] = conditions: single dose of 5, 7.5 or 10 mg THC compared with placebo, p=0.015; cited from earlier work
[4] = widely considered; Buxbaum 1972; cited from earlier work
adult TS patients [5] = conditions: 2.5 mg THC per day titrated to 10 mg, vs placebo, visits 3 and 4, p<0.05; cited from earlier work
[6] = Body weight gain during the study; assay type: in vivo, mice; conditions: vs vehicle group 1M
Procedure: as §1, §2, §3

CCCCCc1cc(O)c2c(c1)OC(C)(C)[C@@H]1CCC(C)=C[C@@H]21 [THC, (−)-trans-Δ9-tetrahydrocannabinol]
Analgesic effect at 15′ post administration (Mice, strain ICR [1]; group 2M: THC 50 mg/kg): only group 4M exhibited an analgesic effect | Latency to respond (Mice, strain ICR [1]; group 2M: high dose THC 50 mg/kg, FIG. 4A): higher compared to the control | Analgesic effect at 15′ post administration (Mice, strain ICR [1]; group 3M: THC 12.5 mg/kg): exhibited an analgesic effect | Latency to respond (Mice, strain ICR [1]; group 3M: low dose THC 12.5 mg/kg, FIG. 4B): higher compared to the control | Average animal velocity (uncontrolled movement) (Mice, strain ICR [2]; group 2M: THC 50 mg/kg, vs control 1M): significantly increased the velocity | Total time spent in the center of an arena (measure of anxiety) (Mice, strain ICR [2]; group 2M: THC 50 mg/kg, FIG. 3): decreased the time spent in the center | Average animal velocity (uncontrolled movement) (Mice, strain ICR [2]; group 3M: THC 12.5 mg/kg): had no effect | Tourette Syndrome Symptom List (TSSL) self-rating (adult TS patients [3]): significant global tic improvement | Minimal effective dose of THC as an analgesic [4]: 20 mg/kg | Global Clinical Impression Scale (GCIS) (adult TS patients [5]): significant difference | Body weight (BW) gain ([6]; group 2M: THC 50 mg/kg, FIG. 1A): characteristic weight gain | Body weight (BW) gain ([6]; group 3M: THC 12.5 mg/kg, FIG. 1B): increased; also recorded: characteristic weight gain
